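Test compounds were applied to cells in 96-well plates for 48 hours at 5 doses. GI50 marks 50% less growth. The concentration for full growth arrest is given as TGI.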
Key:
Assay in all cases: DTP human tumour cell line panel, 48 h
HS 578T breast = tested on: HS 578T breast
MCF7 breast = tested on: MCF7 breast
NCI-H226 lung = tested on: NCI-H226 lung
OVCAR-5 ovarian = tested on: OVCAR-5 ovarian
OVCAR-8 ovarian = tested on: OVCAR-8 ovarian
SF-295 CNS = tested on: SF-295 CNS
SK-MEL-2 melanoma = tested on: SK-MEL-2 melanoma
SK-OV-3 ovarian = tested on: SK-OV-3 ovarian
SN12C renal = tested on: SN12C renal
SNB-75 CNS = tested on: SNB-75 CNS

Structure (SMILES)	TGI (HS 578T breast)	TGI (MCF7 breast)	TGI (NCI-H226 lung)	TGI (OVCAR-5 ovarian)	TGI (OVCAR-8 ovarian)	TGI (SF-295 CNS)	TGI (SK-MEL-2 melanoma)	TGI (SK-OV-3 ovarian)	TGI (SN12C renal)	TGI (SNB-75 CNS)	GI50 (HS 578T breast)	GI50 (MCF7 breast)	GI50 (NCI-H226 lung)	GI50 (OVCAR-5 ovarian)	GI50 (OVCAR-8 ovarian)	GI50 (SF-295 CNS)	GI50 (SK-MEL-2 melanoma)	GI50 (SK-OV-3 ovarian)	GI50 (SN12C renal)	GI50 (SNB-75 CNS)
O=[N+]([O-])c1ccc(N2N=C(c3c(O)ccc4ccccc34)CC2c2ccc(Cl)cc2)c([N+](=O)[O-])c1 (stereo not given)	> 100 µM	> 100 µM	> 100 µM	> 100 µM	> 100 µM	39.1 µM	44.2 µM	> 100 µM	> 100 µM	> 100 µM	–	–	–	–	–	–	–	–	–	–
O=C(O)Cn1c2c(c3c1-c1ccccc1C3=O)C(=O)CCC2	> 100 µM	> 100 µM	> 100 µM	> 100 µM	> 100 µM	> 100 µM	> 100 µM	> 100 µM	> 100 µM	> 100 µM	> 100 µM	> 100 µM	> 100 µM	> 100 µM	> 100 µM	> 100 µM	> 100 µM	> 100 µM	> 100 µM	> 100 µM
O=c1cc(N2CCOCC2)n2c(ccc3ccccc32)n1	> 100 µM	> 100 µM	> 100 µM	> 100 µM	> 100 µM	> 100 µM	> 100 µM	> 100 µM	> 100 µM	> 100 µM	–	–	–	–	–	–	–	–	–	–
CC(=O)CC(=O)N1CCSC1=S	> 10 µM	> 10 µM	> 10 µM	> 10 µM	> 10 µM	> 10 µM	> 10 µM	> 10 µM	> 10 µM	> 10 µM	–	–	–	–	–	–	–	–	–	–
C=C(CN(CC)CC)C1(c2ccccc2)CC2(CCCC2)C(=O)O1 (stereo not given)	> 100 µM	> 100 µM	> 100 µM	> 100 µM	> 100 µM	> 100 µM	> 100 µM	> 100 µM	> 100 µM	92.6 µM	–	–	–	–	–	–	–	–	–	–
COc1cccc(NC(=O)CC(=O)n2nc(-c3ccccc3)c(N=Nc3ccc(Cl)cc3)c2-c2ccccc2)c1	> 82.3 µM	45.3 µM	73.8 µM	> 100 µM	68.3 µM	> 88.8 µM	89.1 µM	> 79.9 µM	> 100 µM	> 86.9 µM	–	–	–	–	–	–	–	–	–	–
S=C1C(=Nc2ccccc2)N(c2ccccc2)/C(=N\c2cccc[n+]2Cc2ccccc2)N1c1ccccc1	> 100 µM	42.8 µM	40.4 µM	32.7 µM	38.7 µM	27.4 µM	55.8 µM	42.6 µM	35.4 µM	25.5 µM	–	–	–	–	–	–	–	–	–	–
CC(OP(=O)(O)O)C(N)C(=O)O (stereo not given)	> 100 µM	> 100 µM	> 100 µM	> 100 µM	> 100 µM	> 100 µM	> 100 µM	> 100 µM	> 100 µM	> 100 µM	–	–	–	–	–	–	–	–	–	–
Cn1c2ccc(Cl)cc2c2ccc3c(c21)C(=O)C=CC3=O	> 10 µM	> 10 µM	> 10 µM	> 10 µM	> 10 µM	> 10 µM	> 10 µM	> 10 µM	> 10 µM	> 10 µM	–	–	–	–	–	–	–	–	–	–
Oc1ccc(Cl)cc1-c1cc(-c2ccccc2)nc(=S)[nH]1	> 100 µM	> 100 µM	> 100 µM	> 100 µM	> 100 µM	> 100 µM	78.2 µM	> 100 µM	> 100 µM	59.2 µM	–	–	–	–	–	–	–	–	–	–
CCOC(=O)c1cc2c3c(c(C(C)=O)c(OC)c2[nH]1)N(C(=O)CC)CC3	57.9 µM	40.4 µM	34.2 µM	89.5 µM	46.9 µM	39.1 µM	48.3 µM	> 100 µM	42.9 µM	57.1 µM	–	–	–	–	–	–	–	–	–	–
O=c1[nH]nc(-c2ccccc2)c2[nH]c3c(c12)Cc1ccccc1-3	> 100 µM	> 100 µM	70.7 µM	> 100 µM	> 100 µM	> 100 µM	> 100 µM	> 100 µM	> 100 µM	> 43.3 µM	–	–	–	–	–	–	–	–	–	–
Cc1nc2ccc(Br)cc2c(=O)n1-c1ccc(N)cc1	> 100 µM	> 100 µM	> 100 µM	> 100 µM	> 100 µM	> 100 µM	> 100 µM	> 100 µM	> 100 µM	> 100 µM	–	–	–	–	–	–	–	–	–	–
O=c1cc(-c2ccccc2)oc2c1ccc1[nH]c3ccccc3c(=O)c12	> 100 µM	> 100 µM	> 100 µM	> 100 µM	> 100 µM	> 100 µM	> 100 µM	> 100 µM	> 100 µM	> 100 µM	–	–	–	–	–	–	–	–	–	–
COc1ccc(-n2c(N)c(C#N)c(C#N)c2-c2ccco2)cc1	> 100 µM	> 100 µM	> 100 µM	> 100 µM	> 100 µM	> 100 µM	> 100 µM	> 100 µM	> 100 µM	> 100 µM	–	–	–	–	–	–	–	–	–	–
O=C1C=CC(=O)c2c(O)c(N3CCOCC3)c(Cl)c(O)c21	1.7 µM	0.486 µM	3.34 µM	1.76 µM	1 µM	3.21 µM	0.765 µM	6.22 µM	0.425 µM	2.04 µM	–	–	–	–	–	–	–	–	–	–
c1cc2cc3c4c5c(cc6ccc7cc8cc9c%10c8c8c7c6c5c8c5c%10c(c1C9N1CCOCCOCCOCCOCCOCC1)c2c45)C3 (stereo not given)	> 100 µM	> 100 µM	> 100 µM	> 100 µM	> 100 µM	> 100 µM	> 100 µM	> 100 µM	> 100 µM	> 100 µM	–	–	–	–	–	–	–	–	–	–
CC(=O)/C=C/c1ccccc1	> 100 µM	> 100 µM	91.2 µM	> 100 µM	72.9 µM	> 100 µM	> 100 µM	> 100 µM	> 100 µM	> 100 µM	–	–	–	–	–	–	–	–	–	–
CCOc1ccc2nc3nc(=O)[nH]c(C)c3c(NC(C)(CO)CO)c2c1	> 100 µM	> 100 µM	> 100 µM	> 100 µM	> 100 µM	> 100 µM	> 100 µM	> 100 µM	> 100 µM	> 100 µM	–	–	–	–	–	–	–	–	–	–
O=C1C=CC2(O[C@H](C3CCCCC3)[C@@H](C3CCCCC3)O2)C(SC(=O)c2ccccc2)C1 (stereo not given in full)	10.9 µM	5.08 µM	1.62 µM	6.32 µM	13.9 µM	14.5 µM	12.8 µM	33.5 µM	6.58 µM	14.4 µM	–	–	–	–	–	–	–	–	–	–
O=C1c2ccccc2C2(c3ccc(F)cc3)NCCN12 (stereo not given)	> 100 µM	> 100 µM	> 100 µM	> 100 µM	> 100 µM	> 100 µM	> 100 µM	> 100 µM	> 100 µM	> 100 µM	–	–	–	–	–	–	–	–	–	–
COc1cc(S(=O)(=O)Nc2ccc(-c3csc(N4C(=O)C(Cl)C4c4ccccc4O)n3)cc2)ccc1Cl (stereo not given)	> 100 µM	54.2 µM	> 100 µM	> 100 µM	> 100 µM	> 100 µM	> 100 µM	> 100 µM	> 100 µM	> 100 µM	–	–	–	–	–	–	–	–	–	–
Cc1cc2c(c(C(=O)NCC(=O)O)c1)Oc1c(cc(C)cc1C(=O)NCC(=O)O)S2	> 100 µM	> 100 µM	> 100 µM	> 100 µM	> 100 µM	> 100 µM	> 100 µM	> 100 µM	> 100 µM	> 100 µM	–	–	–	–	–	–	–	–	–	–
Cc1cc(C)nc(NS(=O)(=O)c2ccc(NNc3c4ccccc4nc4c(C(=O)Nc5ccc(S(=O)(=O)Nc6cc(C)on6)cc5)cccc34)cc2)n1	> 100 µM	> 100 µM	63.8 µM	> 100 µM	> 100 µM	> 100 µM	62.5 µM	> 100 µM	> 100 µM	86 µM	–	–	–	–	–	–	–	–	–	–
Nc1ccc2c(=O)cc(-c3ccc(Br)s3)[nH]c2n1	> 100 µM	> 100 µM	9.11 µM	> 100 µM	> 57.2 µM	> 31.9 µM	> 100 µM	> 53.1 µM	> 100 µM	> 28.6 µM	–	–	–	–	–	–	–	–	–	–
Oc1ccc2ccccc2c1OCc1nnc(CCCCCCCCc2nnc(COc3c(O)ccc4ccccc34)n2Nc2ccccc2)n1Nc1ccccc1	65.2 µM	> 100 µM	> 91.1 µM	> 95.9 µM	63.1 µM	> 100 µM	> 76.6 µM	> 100 µM	> 100 µM	> 100 µM	–	–	–	–	–	–	–	–	–	–
